For data set [1] the following is noted: cited from earlier work.
Data set [2] can be described thus: Fluorescence emission spectrum and Stokes shift. The conditions noted are these: for fluorescence emission intensity / λemis (emission wavelength): excitation at 345 nm, 20 μM; for λemis (emission wavelength): solvent per compound: IM1, IM3, IM4, IM5 CH2Cl2, IM2 DMSO, IM6 CH3OH, IM7 hexane, DAPI H2O; for ΔST (Stokes shift): difference between absorption and emission wavelengths, solvent per compound as in Table 1. It counts as physicochemical. The method, then:
The stock solutions were diluted to a concentration of 20 µM, and readings used the excitation wavelength of 345 nm for all compounds. […]

In another data set the test system is L929. Nature of the data set: MTT cytotoxicity assay, nontumor murine fibroblast L929. It counts as cell-based. The conditions noted are these: Mus musculus, 72 h exposure. The method, then: (§1) The cytotoxic activity of the naphth[1,2-d]imidazoles IM1–IM7 was assessed through colorimetric MTT assay. The ability of these compounds to inhibit cell growth against human glioblastoma (SNB-19), human colorectal carcinoma (HCT-116), and human promyelocytic leukemia (HL-60) cell lines was evaluated. The IC50 was determined for those compounds, returning a percentage inhibition of cell growth above 75% in at least two tested cell lines. […] Doxorubicin was used as the positive control, and cytotoxic activities were expressed as IC50 for all the naphth[1,2-d]imidazoles in Table 2.
(§2) Brain tumor (SNB-19), human colorectal carcinoma (HCT-116), and human promyelocytic leukemia (HL-60) cells were obtained from the National Cancer Institute (NCI) (Bethesda, MD, USA). The L929 cells (mouse fibroblast L cells NCTC clone 929) were purchased from the American Type Culture Collection (Manassas, VA, USA). The cells were grown on RPMI 1640 medium supplemented with 10% fetal bovine serum and 1% antibiotics (penicillin/streptomycin) at 37 °C with 5% CO2.
(§3) Cytotoxic potential of the naphth[1,2-d]imidazoles IM1–IM7 was assessed after 72 h of exposure to the tumor cell lines of human SNB-19, HCT-116, HL-60, and normal cell line L929. Cells were plated in 96-well plates (0.7 × 10^5 cells/well for SNB-19, 0.3 × 10^6 cells/well for HCT-116, and 0.3 × 10^6 cells/well for HL-60). Compounds were dissolved with DMSO at concentrations in the 0.078–10 μg.mL^−1 range. Doxorubicin (0.001–1.10 μM) was used as the positive control, and negative control groups received the same amount of vehicle (DMSO). The cell viability was determined by the reduction of the yellow dye 3-(4,5-dimethyl-2-thiazol)-2,5-diphenyl-2H-tetrazolium bromide (MTT) to a blue formazan product. At the end of the incubation time (69 h), the plates were centrifuged, and the medium was replaced with fresh medium (200 μL) containing 0.5 mg/mL of MTT. Three hours later, the MTT formazan product was dissolved in DMSO (150 μL), and the absorbance was measured using a multi-plate reader (Spectra Count, Packard, ON, Canada). The drug effect was quantified as the percentage of control absorbance of the reduced dye at 550 nm. All experiments were performed in three independent assays, and the half maximal inhibitory concentration (IC50) and their 95% confidence intervals were achieved by nonlinear regression.

In another data set the test system is HCT-116. The data set can be described thus: MTT cytotoxicity assay, human colorectal carcinoma HCT-116. The conditions noted are these: for IC50: Homo sapiens, HCT-116, 72 h exposure, MTT, 95% confidence interval in brackets; for SI HCT-116 (selectivity index): ratio IC50 L929 / IC50 HCT-116. The format is cell-based. The method, then:
as §1, §2, §3

The test system of a further data set is SNB-19. The data set can be described thus: MTT cytotoxicity assay, human glioblastoma SNB-19. The format is cell-based. The note with it: for IC50: Homo sapiens, SNB-19, 72 h exposure, MTT, 95% confidence interval in brackets; for SI SNB-19 (selectivity index): ratio IC50 L929 / IC50 SNB-19. The method, then: as §1, §2, §3
Data set [3] is described as follows: UV-vis absorption spectra and molar absorptivity coefficient. It counts as physicochemical. The note with it: 20 μM. The method, then:
A stock solution in dichloromethane (CH2Cl2) of each compound was prepared at a concentration of 4000 µM. From the stock solution, solutions were prepared at a concentration of 20 µM of each compound in four different solvents: hexane, CH2Cl2, dimethyl sulfoxide (DMSO), and methanol (CH3OH). Then, measurement in the range of 190 to 800 nm was performed, with the wavelengths of maximum absorption (λmax) of the compounds in the different solvents shown in Table S1 and Figure S8.
The molar absorptivity coefficient (εAbs) was determined using an equation applied by Lambert–Beer (εAbs = A/LxC, where A—maximum absorbance; L—the optical path of the cuvette used (1 cm); and C—concentration of the analyzed sample in M).

Another data set relates to HL-60. Nature of the data set: MTT cytotoxicity assay, human promyelocytic leukemia HL-60. The conditions noted are these: for IC50: Homo sapiens, HL-60, 72 h exposure, MTT, 95% confidence interval in brackets; for SI HL-60 (selectivity index): ratio IC50 L929 / IC50 HL-60. It counts as cell-based. The method, then: as §1, §2, §3
Details of data set [4]: method as in PMID 25995830, PMID 20460521. The conditions noted are these: drawback limiting clinical applications; cited from earlier work.
[5] abbreviates: solvent per compound: IM1, IM3, IM4, IM5 CH2Cl2, IM2 DMSO, IM6 CH3OH, IM7 hexane.

“Also recorded” adds a separate entry of the source. Like-named read-outs stand apart in the source and are kept apart here. Marks after values point to notes of the source that are not given here.

Turning to `N=C(N)c1ccc(-c2cc3ccc(C(=N)N)cc3[nH]2)cc1` [DAPI, 4′,6-diamidino-2-phenylindole, reference compound], in [1] (H2O, ref Farahat et al. (2017) [32]), the λmax is given as 343 ^d nm. Besides, in data set [1] (general characteristic of DAPI stated in text, ref not given), the λabs is reported as 340 nm. Also, in [2], the fluorescence emission intensity is on record as 1.13 × 10^5 au and the “λemis (emission wavelength)” value amounted to 452 nm.
On to `CC1(C)CCc2c(c3ccccc3c3nc(-c4ccc([N+](=O)[O-])cc4)[nH]c23)O1` [IM6, 4,5-dihydro-6,6-dimethyl-6H-2-(4-nitrophenyl)-pyran[b-4,3]naphth[1,2-d]imidazole], for which the melting point is 259 to 260 °C. For the same molecule, half-maximal inhibition with L929 (IC50) was put at 152 µM. Moreover, in the data set with HCT-116, the IC50 was determined as 21.1 µM and the “SI HCT-116 (selectivity index)” value amounted to 7.18. For the same molecule, in the data set on SNB-19, half-maximal inhibition (IC50) required 22.3 µM and the “SI SNB-19 (selectivity index)” value was 6.81. Further, in [3] (setting [5]), the “εAbs (molar absorptivity coefficient)” value is listed as 1.85 10^4 M^−1cm^−1 and the λmax is 411 nm. In data set [2], the “λemis (emission wavelength)” value is given as 391 nm. Moreover, in the data set with HL-60, it took 13.7 µM to reach half-maximal inhibition (IC50) and the “SI HL-60 (selectivity index)” value was 11.09.
With `CC1(C)CCc2c(c3ccccc3c3nc(-c4cccc5ccccc45)[nH]c23)O1` [IM3, 4,5-dihydro-6,6-dimethyl-6H-2-(naphthalenyl)-pyran[b-4,3]naphth[1,2-d]imidazole], the “cell growth inhibition / cytotoxicity (in words)” value in the data set on HCT-116 (HCT-116, MTT, IC50 not calculated) is given as “low growth inhibition; also recorded: low cytotoxicity”; in the data set on SNB-19 (SNB-19, MTT, IC50 not calculated), “low growth inhibition; also recorded: low cytotoxicity”; with HL-60 (HL-60, MTT, IC50 not calculated), “low growth inhibition; also recorded: low cytotoxicity”. Besides, the “εAbs (molar absorptivity coefficient)” value in data set [3] was 15700 M⁻¹ cm⁻¹; in data set [3] (setting [5]), 1.57 10^4 M^−1cm^−1. In data set [3] (setting [5]), this molecule returned a λmax of 354 nm. For the same molecule, the “ΔST (Stokes shift)” value in data set [2] came out at 103 nm. Besides, the fluorescence emission intensity in data set [2] is given as 1.41 × 10^6 au. In [2], the “λemis (emission wavelength)” value worked out at 457 nm.
As for `CC1(C)CCc2c(c3ccccc3c3nc(-c4ccccc4[N+](=O)[O-])[nH]c23)O1` [IM7, 4,5-dihydro-6,6-dimethyl-6H-2-(2-nitrophenyl)-pyran[b-4,3]naphth[1,2-d]imidazole], the melting point lay in the range of 139 to 141 °C. This molecule had a half-inhibitory concentration (IC50) with HCT-116 of 35.1 µM. The same molecule returned an IC50 with SNB-19 above 67 µM. In data set [3] (setting [5]), the “εAbs (molar absorptivity coefficient)” value is 1.35 10^4 M^−1cm^−1 and the λmax worked out at 337 nm. Moreover, in [2], the “ΔST (Stokes shift)” value came out at 48 nm and the “λemis (emission wavelength)” value was 385 nm. The molecule also had an IC50 in the data set with HL-60 of 14.9 µM.
`CC1(C)CCc2c(c3ccccc3c3nc(-c4ccccc4)[nH]c23)O1` [IM2, 4,5-dihydro-6,6-dimethyl-6H-2-(phenyl)-pyran[b-4,3]naphth[1,2-d]imidazole] came in with a melting point of 278 to 279 °C. The IC50 in the data set on L929 is 105 µM. In the data set with HCT-116, 21.7 µM corresponded to half-maximal inhibition (IC50) and the “SI HCT-116 (selectivity index)” value was found to be 4.83. Moreover, in the data set with SNB-19, the IC50 was determined as 27 µM and the “SI SNB-19 (selectivity index)” value amounted to 3.89. Further, in [3], the “εAbs (molar absorptivity coefficient)” value worked out at 24300 M⁻¹ cm⁻¹. Further, in data set [3] (setting [5]), the “εAbs (molar absorptivity coefficient)” value is 2.43 10^4 M^−1cm^−1 and the λmax was determined as 342 nm. In addition, in [2], the “ΔST (Stokes shift)” value turned out to be 60 nm, the fluorescence emission intensity is given as 2.49 × 10^6 au and the “λemis (emission wavelength)” value is 402 nm. Further, in the data set on HL-60, the half-inhibitory concentration (IC50) turned out to be 29.9 µM and the “SI HL-60 (selectivity index)” value was determined as 3.50.
As for `COc1cccc2c1C(=O)c1c(O)c3c(c(O)c1C2=O)C[C@@](O)(C(=O)CO)C[C@@H]3O[C@H]1C[C@H](N)[C@H](O)[C@H](C)O1` [Doxorubicin, reference compound], in the data set on L929, inhibition was half-maximal at 3.16 µM (IC50). Moreover, in the data set on HCT-116, the IC50 was 0.2 µM and the “SI HCT-116 (selectivity index)” value is listed as 15.80. Further, in the data set on SNB-19, it took 2.21 µM to reach half-maximal inhibition (IC50) and the “SI SNB-19 (selectivity index)” value came out at 1.43. In the data set on HL-60, the IC50 amounted to 0.04 µM and the “SI HL-60 (selectivity index)” value is 79.00.
As to `CC1(C)CCC2=C(O1)c1ccccc1C(=O)C2=O` [β-lapachone, β-Lapachone], the water solubility entry in data set [4] is “low”.
`CN(C)c1ccc(-c2nc3c([nH]2)c2c(c4ccccc43)OC(C)(C)CC2)cc1` [IM5, 4,5-dihydro-6,6-dimethyl-6H-2-(4-dimethylaminophenyl)-pyran[b-4,3]naphth[1,2-d]imidazole] registered a melting point of 182 to 184 °C. In addition, the IC50 in the data set on L929 worked out at 52.8 µM. In the data set with HCT-116, the IC50 is 44.1 µM and the “SI HCT-116 (selectivity index)” value was 1.20. Besides, in the data set on SNB-19, the 50% inhibitory concentration (IC50) is 21.1 µM and the “SI SNB-19 (selectivity index)” value came out at 2.51. The “εAbs (molar absorptivity coefficient)” value in [3] was found to be 27100 M⁻¹ cm⁻¹. Besides, in data set [3] (setting [5]), the “εAbs (molar absorptivity coefficient)” value is 2.71 10^4 M^−1cm^−1 and the λmax was found to be 368 nm. In data set [2], the “ΔST (Stokes shift)” value is 54 nm, the fluorescence emission intensity is reported as 7.04 × 10^5 au and the “λemis (emission wavelength)” value was found to be 422 nm. In the data set with HL-60, the IC50 was 12.3 µM and the “SI HL-60 (selectivity index)” value was determined as 4.28.
For `CC1(C)CCc2c(c3ccccc3c3nc[nH]c23)O1` [IM1, 4,5-dihydro-6,6-dimethyl-6H-2-pyran[b-4,3]naphth[1,2-d]imidazole], the melting point was in the range of 255 to 259 °C. The IC50 in the data set on L929 came to 186 µM. Further, in the data set on HCT-116, inhibition was half-maximal at 62.1 µM (IC50) and the “SI HCT-116 (selectivity index)” value came to 3.00. In the data set on SNB-19, 46.4 µM corresponded to half-maximal inhibition (IC50) and the “SI SNB-19 (selectivity index)” value stood at 4.00. Further, in data set [3] (setting [5]), the “εAbs (molar absorptivity coefficient)” value is on record as 0.61 10^4 M^−1cm^−1 and the λmax is listed as 316 nm. In [2], the “ΔST (Stokes shift)” value came out at 50 nm, the fluorescence emission intensity is reported as 6.90 × 10^4 au and the “λemis (emission wavelength)” value was found to be 366 nm. Besides, in the data set on HL-60, the IC50 stood at 24.2 µM and the “SI HL-60 (selectivity index)” value is listed as 7.68.
In the data set on L929, `CC1(C)CCc2c(c3ccccc3c3nc(-c4ccc(O)cc4)[nH]c23)O1` [IM4, 4,5-dihydro-6,6-dimethyl-6H-2-(4-hidroxyphenyl)-pyran[b-4,3]naphth[1,2-d]imidazole] returned an IC50 above 363 µM. Besides, in the data set with HCT-116, it took 23 µM to reach half-maximal inhibition (IC50) and the “SI HCT-116 (selectivity index)” value is listed as above 15.76. Moreover, in the data set with SNB-19, inhibition was half-maximal at 31.9 µM (IC50) and the “SI SNB-19 (selectivity index)” value is reported as above 11.38. The “εAbs (molar absorptivity coefficient)” value in data set [3] came out at 14800 M⁻¹ cm⁻¹. Besides, in [3] (setting [5]), the “εAbs (molar absorptivity coefficient)” value was 1.48 10^4 M^−1cm^−1 and the λmax is listed as 344 nm. For the same molecule, in data set [2], the “ΔST (Stokes shift)” value was 49 nm, the fluorescence emission intensity is given as 1.36 × 10^6 au and the “λemis (emission wavelength)” value amounted to 393 nm. Moreover, in the data set on HL-60, the IC50 was 8.71 µM and the “SI HL-60 (selectivity index)” value is listed as above 41.70.
